# What was measured:
# Human DNA polymerase λ = target: T1, Human DNA polymerase λ (Homo sapiens, UniProt Q9UGP5); assay: DNA polymerase activity assay, human pol λ; assay type: biochemical; details: for Inhibitory effect on human pol λ activity: 50 μM of each compound, Figure 2
# T1 construct: made in house
# T1 sequence (Q9UGP5 1-575): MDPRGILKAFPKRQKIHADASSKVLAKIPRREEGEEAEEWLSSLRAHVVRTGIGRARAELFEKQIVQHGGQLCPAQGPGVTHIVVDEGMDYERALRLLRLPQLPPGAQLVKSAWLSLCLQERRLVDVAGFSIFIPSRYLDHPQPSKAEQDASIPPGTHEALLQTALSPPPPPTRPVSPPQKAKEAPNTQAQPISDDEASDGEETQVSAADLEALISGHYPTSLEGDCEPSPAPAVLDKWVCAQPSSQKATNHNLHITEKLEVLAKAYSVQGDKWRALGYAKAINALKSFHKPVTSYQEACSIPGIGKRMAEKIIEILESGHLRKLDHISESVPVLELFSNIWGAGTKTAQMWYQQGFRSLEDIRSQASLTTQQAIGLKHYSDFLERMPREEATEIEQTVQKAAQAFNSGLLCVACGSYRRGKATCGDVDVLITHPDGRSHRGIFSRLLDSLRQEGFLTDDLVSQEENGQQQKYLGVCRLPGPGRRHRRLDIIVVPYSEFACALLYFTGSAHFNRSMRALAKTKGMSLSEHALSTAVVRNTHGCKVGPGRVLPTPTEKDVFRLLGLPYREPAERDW
# Description: (§1) Pols from mammals, a fish (cherry salmon), an insect (fruit fly) and a plant (cauliflower) were purified, and prokaryotic pols and other DNA metabolic enzymes, such as T7 RNA polymerase, T4 polynucleotide kinase and bovine deoxyribonuclease I, were purchased as described in our previous report. The activities of all pols and other DNA metabolic enzymes were measured as described in previous reports.
# (§2) The components of the pol assay were poly(dA)/oligo(dT)18 and dTTP as the DNA template-primer and 2′-deoxyribonucleoside 5′-triphosphate (dNTP) substrate, respectively. VK2, VK3, and their synthesized derivatives (i.e., MK-3, MK-2 and MK-1) were dissolved in dimethyl sulfoxide (DMSO) at various concentrations and sonicated for 30 s. The sonicated samples (4 μL) were mixed with 16 μL of each pol enzyme (final amount, 0.05 units) in 50 mM Tris-HCl (pH 7.5) containing 1 mM dithiothreitol, 50% glycerol and 0.1 mM EDTA, and kept at 0 °C for 10 min. These inhibitor–enzyme mixtures (8 μL) were added to 16 μL of each standard enzyme reaction mixture (50 mM Tris-HCl [pH 7.5], 1 mM dithiothreitol, 1 mM MgCl2, 15% glycerol, 10 μM poly(dA)/oligo(dT)18 and 10 μM [^3H]-dTTP), and incubation was carried out at 37 °C for 60 min, except for Taq pol, which was incubated at 74 °C for 60 min. Activity without the inhibitor was considered to be 100%, and the activity remaining at each concentration of inhibitor was determined relative to this value. One unit of pol activity was defined as the amount of enzyme that catalyzed the incorporation of 1 nmol dNTP (dTTP) into the synthetic DNA template-primer (poly(dA)/oligo(dT)18, A/T = 2/1) in 60 min at 37 °C under normal reaction conditions for each enzyme (scintillation counts: approximately 1 pmol of incorporated radioactive nucleotides = 100 cpm).
# Calf DNA polymerase α = target: T2, Calf DNA polymerase α (Bos taurus, UniProt A0AAA9TD94); assay: DNA polymerase activity assay, calf pol α; assay type: biochemical; details: for Inhibitory effect on calf pol α activity: 50 μM of each compound, Figure 2
# T2 construct: made in house
# T2 sequence (A0AAA9TD94 1-1441): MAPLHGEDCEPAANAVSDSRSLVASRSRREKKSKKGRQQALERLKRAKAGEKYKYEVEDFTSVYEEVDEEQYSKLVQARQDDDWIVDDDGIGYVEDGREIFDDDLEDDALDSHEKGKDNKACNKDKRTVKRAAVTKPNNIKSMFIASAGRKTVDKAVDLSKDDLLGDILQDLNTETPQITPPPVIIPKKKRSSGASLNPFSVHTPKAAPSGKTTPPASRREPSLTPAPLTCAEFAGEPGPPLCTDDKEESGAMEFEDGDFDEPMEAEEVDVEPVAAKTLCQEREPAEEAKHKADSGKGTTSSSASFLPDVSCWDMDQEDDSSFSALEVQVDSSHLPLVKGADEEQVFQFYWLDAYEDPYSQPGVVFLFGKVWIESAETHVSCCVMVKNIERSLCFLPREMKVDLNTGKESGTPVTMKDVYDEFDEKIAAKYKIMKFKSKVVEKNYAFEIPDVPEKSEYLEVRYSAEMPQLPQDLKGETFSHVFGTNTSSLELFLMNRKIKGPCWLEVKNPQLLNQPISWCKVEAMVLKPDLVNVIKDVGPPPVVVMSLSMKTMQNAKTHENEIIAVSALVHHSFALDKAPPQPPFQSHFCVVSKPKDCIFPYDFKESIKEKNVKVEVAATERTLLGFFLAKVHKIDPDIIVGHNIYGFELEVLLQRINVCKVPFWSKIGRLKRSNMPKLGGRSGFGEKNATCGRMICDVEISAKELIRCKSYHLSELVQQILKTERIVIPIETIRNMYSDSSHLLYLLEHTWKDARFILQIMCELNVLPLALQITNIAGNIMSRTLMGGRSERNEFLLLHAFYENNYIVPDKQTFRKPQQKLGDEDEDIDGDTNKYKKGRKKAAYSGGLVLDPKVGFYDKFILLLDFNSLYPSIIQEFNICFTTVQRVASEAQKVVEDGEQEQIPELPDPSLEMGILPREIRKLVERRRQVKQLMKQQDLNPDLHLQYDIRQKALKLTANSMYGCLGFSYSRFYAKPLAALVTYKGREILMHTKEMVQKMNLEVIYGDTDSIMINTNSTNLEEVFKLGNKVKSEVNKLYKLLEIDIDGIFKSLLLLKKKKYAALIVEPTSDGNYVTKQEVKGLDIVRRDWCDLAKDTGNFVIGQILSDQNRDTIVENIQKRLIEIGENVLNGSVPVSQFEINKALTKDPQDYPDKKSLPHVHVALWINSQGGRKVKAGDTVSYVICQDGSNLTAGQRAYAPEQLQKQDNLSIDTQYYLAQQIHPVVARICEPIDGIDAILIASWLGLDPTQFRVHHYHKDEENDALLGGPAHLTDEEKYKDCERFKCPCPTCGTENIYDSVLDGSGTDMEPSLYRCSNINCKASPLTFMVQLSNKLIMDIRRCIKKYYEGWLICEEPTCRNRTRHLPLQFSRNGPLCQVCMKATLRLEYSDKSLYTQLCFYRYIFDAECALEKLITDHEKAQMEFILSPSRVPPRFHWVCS
# Description: as §1, §2
Structure (SMILES),Inhibitory effect on human pol λ activity (Human DNA polymerase λ),Inhibitory effect on calf pol α activity (Calf DNA polymerase α),"IC50 (Human DNA polymerase λ; X-family pol, read-out: IC50 Value of MK-2, Human DNA polymerase λ)","IC50 (Calf DNA polymerase α; B-family pol, read-out: IC50 Value of MK-2, Calf DNA polymerase α)"
CC(C)=CCC1=C(C)C(=O)c2ccccc2C1=O [MK-1],inhibited the activity,inhibited the activity,,
CC(C)=CCC/C(C)=C/CC1=C(C)C(=O)c2ccccc2C1=O [MK-2],inhibited the activity,inhibited the activity,24.6 ± 1.4 µM,27.6 ± 1.6 µM
CC(C)=CCC/C(C)=C/CC/C(C)=C/CC1=C(C)C(=O)c2ccccc2C1=O [MK-3],inhibited the activity,inhibited the activity,,
"CC(C)=CCC/C(C)=C/CC/C(C)=C/CC/C(C)=C/CC1=C(C)C(=O)c2ccccc2C1=O [MK-4, menaquinone 4, reference compound]",had no effect on pol activity,had no effect on pol activity,,
